# Earlier results as cited in patent publication US20150056314A1, “EXTRACTION METHOD FOR USE IN EXTRACTING BENEFICIAL COMPOUNDS FROM COFFEE BEANS” (Applied Food Sciences, Inc., priority 2003, published 2015).
# Experiments:
# rat stomach cancer = settings: rat (Shimizu et al J Toxicol Sci 1999)
# [1] = test system: methylazoxymethanol-induced large intestinal tumors; settings: hamster models
compound,measurement,setting,value
O=C(/C=C/c1ccc(O)c(O)c1)O[C@@H]1C[C@](O)(C(=O)O)C[C@@H](O)[C@H]1O [chlorogenic acid],effect on rat stomach cancer,rat stomach cancer,chemopreventative effect
same,inhibition of methylazoxymethanol-induced large intestinal tumors,[1],inhibit
